Measured values reported in US12581252B2, “Substituted pyrrolo[3,4-b]pyridines as PI3K-α inhibitors” (Relay Therapeutics, Inc., priority 2020, dated 2026).

Target: H1047R PIK3CA enzyme (Homo sapiens, UniProt P42336, H1047R)
Test: ADP-Glo Biochemical PIK3CA Kinase Assay
Protocol: Compounds to be assayed were plated in 16 doses of 1:2 serial dilutions (20 nL volume each well) on a 1536-well plate, and the plate warmed to room temperature. […] To the well was added 1 μL of 200 μM ATP and 20 μM of diC8-PIP2 in Substrate Assay Buffer (50 mM HEPES pH7.4, 50 mM NaCl, 5 mM DTT and 0.03% CHAPS) to start the reaction, and the plate was shaken for 10 seconds, then spun briefly at 1500 rpm, and then incubated for 60 minutes at room temperature. The reaction was stopped by adding 2 μL of ADP-Glo reagent (Promega), and spinning briefly at 1500 rpm, and then incubating for 40 minutes. ADP-Glo Detection reagent (Promega) was added and the plate spun briefly at 1500 rpm, then incubated for 30 minutes.

H1047R PIK3CA enzyme, sequence (P42336 whole entry H1047R): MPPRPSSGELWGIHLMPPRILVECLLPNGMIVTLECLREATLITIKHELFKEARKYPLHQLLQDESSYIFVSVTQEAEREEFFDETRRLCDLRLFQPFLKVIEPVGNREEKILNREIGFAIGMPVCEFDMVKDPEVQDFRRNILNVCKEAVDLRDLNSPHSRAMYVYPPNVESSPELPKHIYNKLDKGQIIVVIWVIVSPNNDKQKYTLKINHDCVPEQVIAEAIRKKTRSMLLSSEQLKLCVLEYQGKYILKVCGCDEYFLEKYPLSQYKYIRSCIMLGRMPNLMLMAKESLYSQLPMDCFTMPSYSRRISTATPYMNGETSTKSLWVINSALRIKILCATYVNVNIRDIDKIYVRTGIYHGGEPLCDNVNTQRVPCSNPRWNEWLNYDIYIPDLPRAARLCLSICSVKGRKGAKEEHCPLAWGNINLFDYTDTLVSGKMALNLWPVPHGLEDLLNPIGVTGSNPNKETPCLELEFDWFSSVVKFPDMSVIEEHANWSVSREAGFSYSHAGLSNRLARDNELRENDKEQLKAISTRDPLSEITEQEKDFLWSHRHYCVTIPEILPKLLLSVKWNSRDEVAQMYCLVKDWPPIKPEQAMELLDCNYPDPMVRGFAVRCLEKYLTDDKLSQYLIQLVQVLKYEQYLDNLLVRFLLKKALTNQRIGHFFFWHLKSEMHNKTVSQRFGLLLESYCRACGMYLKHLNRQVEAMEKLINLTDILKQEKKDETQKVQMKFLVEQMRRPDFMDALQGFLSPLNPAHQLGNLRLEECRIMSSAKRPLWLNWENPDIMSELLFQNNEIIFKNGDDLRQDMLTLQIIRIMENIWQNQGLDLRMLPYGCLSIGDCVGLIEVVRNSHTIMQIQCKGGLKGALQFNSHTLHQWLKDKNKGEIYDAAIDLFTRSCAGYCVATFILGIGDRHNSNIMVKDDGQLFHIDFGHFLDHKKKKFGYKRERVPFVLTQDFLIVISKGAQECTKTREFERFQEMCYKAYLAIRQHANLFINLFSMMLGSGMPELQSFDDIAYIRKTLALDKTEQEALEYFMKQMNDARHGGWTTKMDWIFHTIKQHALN
H1047R PIK3CA enzyme, sequence (P27986 whole entry partner): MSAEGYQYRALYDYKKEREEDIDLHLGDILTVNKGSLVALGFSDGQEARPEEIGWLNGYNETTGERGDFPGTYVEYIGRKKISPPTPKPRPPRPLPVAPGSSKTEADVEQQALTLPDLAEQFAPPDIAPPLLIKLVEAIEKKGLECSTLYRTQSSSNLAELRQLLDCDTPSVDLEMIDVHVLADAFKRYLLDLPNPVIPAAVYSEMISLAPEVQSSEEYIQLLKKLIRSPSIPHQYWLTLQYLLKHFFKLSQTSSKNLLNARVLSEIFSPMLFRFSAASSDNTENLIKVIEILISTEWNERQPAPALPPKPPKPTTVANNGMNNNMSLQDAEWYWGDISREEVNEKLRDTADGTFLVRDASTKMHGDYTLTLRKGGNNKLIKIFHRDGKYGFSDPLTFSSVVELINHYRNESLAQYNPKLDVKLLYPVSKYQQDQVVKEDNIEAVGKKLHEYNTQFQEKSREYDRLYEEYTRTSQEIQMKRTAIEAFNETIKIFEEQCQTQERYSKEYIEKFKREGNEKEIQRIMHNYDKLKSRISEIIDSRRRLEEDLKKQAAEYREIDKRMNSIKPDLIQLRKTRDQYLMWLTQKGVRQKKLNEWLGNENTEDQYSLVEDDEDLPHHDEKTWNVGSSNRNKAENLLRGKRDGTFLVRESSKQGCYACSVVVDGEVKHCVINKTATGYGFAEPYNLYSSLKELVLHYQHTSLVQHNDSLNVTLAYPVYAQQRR

| IC50 | SMILES |
| --- | --- |
| 10000 to 100000 nM | NC1(C(=O)Nc2cc(-c3ccc4ncnn4c3)cc3c2C(c2cc(F)ccc2Cl)NC3=O)CCCC1 (centres unmarked) [Compound I-1812] |
| 10000 to 100000 nM | O=C(Nc1cccc2c1C(c1ccnc(O)c1)NC2=O)c1cc(F)cc(C(F)(F)F)c1 (centres unmarked) [Compound I-658] |
| 10000 to 100000 nM | O=C(Nc1cccc2c1C(C1CCCC(O)C1)NC2=O)c1cc(F)cc(C(F)(F)F)c1 (mixture of isomers) [Compound I-2224] |
| 100 to 500 nM | Cc1ccccc1C1NC(=O)c2c(-c3cnn(C)c3)ncc(NC(=O)c3cc(F)cc(C(F)(F)F)c3)c21 (centres unmarked) [Compound I-254] |
| 1000 to 10000 nM | NC(=O)c1cc(-c2ccc3ncnn3c2)cc2c1C(c1cc(F)ccc1Cl)NC2=O (centres unmarked) [Compound I-1774] |
| 1000 to 10000 nM | COCc1cc(F)cc(C(=O)Nc2cc(Br)cc3c2C(c2cc(F)ccc2Cl)NC3=O)c1 (centres unmarked) [Compound I-1316] |
| 500 to 1000 nM | Cc1ccccc1[C@H]1NC(=O)c2nccc(NC(=O)N3C[C@@H](C)c4ccccc43)c21 (single isomer, unassigned) [Compound I-301] |
| 100 to 500 nM | O=C(Nc1cc(Br)cc2c1C(c1cc(F)ccc1Cl)NC2=O)c1cc(F)cc(C(F)F)c1 (centres unmarked) [Compound I-835] |
| 1000 to 10000 nM | N#Cc1cc(F)cc(C(=O)Nc2cc(Br)cc3c2C(c2cc(F)ccc2Cl)NC3=O)c1 (centres unmarked) [Compound I-910] |
| 100 to 500 nM | CN1CCN=C1Nc1cc(NC(=O)c2cc(F)cc(C(F)(F)F)c2)c2c(c1)C(=O)NC2c1cc(F)ccc1Cl (centres unmarked) [Compound I-2298] |
| 100 to 500 nM | Cn1ccnc1-c1cc(NC(=O)c2cc(F)cc(C(F)(F)F)c2)c2c(c1)C(=O)NC2c1cc(F)ccc1Cl (racemic) [Compound I-1193] |
| 1000 to 10000 nM | O=C1N[C@@H](c2cc(F)ccc2Cl)c2c(NC(=O)[C@H]3C[C@H](O)C[C@@H](C(F)(F)F)C3)cc(Br)cc21 (single isomer, unassigned) [Compound I-2151] |
| ≤ 100 nM | N#Cc1cnccc1-c1cc(NC(=O)c2cc(F)cc(C(F)(F)F)c2)c2c(n1)C(=O)NC2c1cc(F)ccc1Cl (centres unmarked) [Compound I-549] |
| 1000 to 10000 nM | NCc1cc(NC(=O)N2C[C@](O)(C(F)F)c3cc(F)ccc32)c2c(c1)C(=O)N[C@H]2c1cc(F)ccc1Cl (single isomer, unassigned) [Compound I-2697] |
| 1000 to 10000 nM | CNc1cc(Nc2csc3ccccc23)cc2c1C(=O)NC2c1ccccc1C (centres unmarked) [Compound I-77] |
| ≤ 100 nM | O=C(Nc1cc(OC[C@H]2CCO2)cc2c1[C@H](c1cc(F)ccc1Cl)NC2=O)c1cc(F)cc(C(F)(F)F)c1 (single isomer, unassigned) [Compound I-1518] |
| 100 to 500 nM | CC1(C)CC(COc2cc(NC(=O)c3cc(F)cc(C(F)(F)F)c3)c3c(c2)C(=O)NC3c2cc(F)ccc2Cl)O1 (centres unmarked) [Compound I-873] |
| 100 to 500 nM | O=C1NC(c2cc(F)ccc2Cl)c2c(NC(=O)C34CC5CC(C3)C(F)(F)C(C5)C4)cc(Br)cc21 (centres unmarked) [Compound I-1203] |
| 100 to 500 nM | Cc1ccccc1C1NC(=O)c2c(Cl)ncc(NC(=O)c3cc(F)cc(C(F)(F)F)c3)c21 (centres unmarked) [Compound I-232, N-[4-Chloro-1-(2-methylphenyl)-3-oxo-1H,2H,3H-pyrrolo[3,4-c]pyridin-7-yl]-3-fluoro-5-(trifluoromethyl)benzamide] |
| ≤ 100 nM | Cc1ccc(F)cc1C1NC(=O)c2cc(Br)cc(NC(=O)c3cc(F)cc(C(F)(F)F)c3)c21 (centres unmarked) [Compound I-759] |
| ≤ 100 nM | CC(C)(O)c1cc(NC(=O)c2cc(F)cc(C(F)(F)F)c2)c2c(c1)C(=O)NC2c1cc(F)ccc1Cl (centres unmarked) [Compound I-128, N-(3-(2-chloro-5-fluorophenyl)-6-(2-hydroxypropan-2-yl)-1-oxoisoindolin-4-yl)-3-fluoro-5-(trifluoromethyl)benzamide] |
| 100 to 500 nM | CC(=O)c1cc(NC(=O)c2cc(F)cc(Cl)c2)c2c(c1)C(=O)NC2c1cc(F)ccc1Cl (centres unmarked) [Compound I-215] |

| IC50 | SMILES |
| --- | --- |
| 1000 to 10000 nM | Cc1ccccc1C1NC(=O)c2cccc(NC(=O)c3cccc(C(F)(F)F)c3)c21 (centres unmarked) [Compound I-435] |
| 10000 to 100000 nM | O=C(Nc1cccc2c1C(C1CCC1)NC2=O)c1cc(F)cc(C(F)(F)F)c1 (centres unmarked) [Compound I-1731] |
| 10000 to 100000 nM | O=C(CCC(F)(F)F)Nc1cccc2c1[C@H](c1cc(F)ccc1Cl)NC2=O [Compound I-2120] |
| ≤ 100 nM | O=C(Nc1cc(O[C@H]2CC[C@H]2O)cc2c1C(c1cc(F)ccc1Cl)NC2=O)c1cc(F)cc(C(F)(F)F)c1 (mixture of isomers) [Compound I-1210] |
| 10000 to 100000 nM | O=C(CN1CCCC1)Nc1cc(-c2ccc3ncnn3c2)cc2c1C(c1cc(F)ccc1Cl)NC2=O (centres unmarked) [Compound I-1783] |
| 100 to 500 nM | O=C(Nc1cc(OCC2CC2)cc2c1C(c1cc(F)ccc1Cl)NC2=O)c1cc(F)cc(C(F)(F)F)c1 (centres unmarked) [Compound I-2134] |
| 10000 to 100000 nM | CNc1cc(NC(=O)N2C[C@@](O)(C(F)F)c3cc(F)ccc32)c2c(c1)C(=O)N[C@H]2c1cc(F)ccc1Cl (single isomer, unassigned) [Compound I-2680] |
| 10000 to 100000 nM | O=C1NC(c2cc(F)ccc2Cl)c2c(NC(=O)C3CCCO3)cc(-c3ccc4ncnn4c3)cc21 (centres unmarked) [Compound I-1831] |
| 1000 to 10000 nM | O=C(Nc1cccc2c(=O)[nH]n(C3CCCCC3)c12)c1cc(F)cc(C(F)(F)F)c1 [Compound I-629] |
| 100 to 500 nM | Cn1cc(-c2cc(NC(=O)c3nsc4ccccc34)c3c(n2)C(=O)N[C@@H]3c2ccccc2Cl)cn1 [Compound I-113] |
| 10000 to 100000 nM | O=C1NC(c2cc(F)ccc2Cl)c2c(NS(=O)(=O)c3cc(F)cc(C(F)(F)F)c3)cc(Br)cc21 (centres unmarked) [Compound I-1352] |
| ≤ 100 nM | O=C(Nc1cc(-c2ccn3ncnc3c2F)cc2c1C(c1cc(F)ccc1Cl)NC2=O)c1cc(F)cc(C(F)(F)F)c1 (centres unmarked) [Compound I-1698] |
| 10000 to 100000 nM | Cc1ccccc1C1NC(=O)c2cccc(NC(=O)c3cnc(OCC(C)C)c(F)c3)c21 (centres unmarked) [Compound I-111] |
| 1000 to 10000 nM | O=C1N[C@H](c2cc(F)ccc2Cl)c2c(NC(=O)N3C[C@](O)(C(F)(F)F)c4cc(F)ccc43)cc(Cl)cc21 (single isomer, unassigned) [Compound I-2512] |
| ≤ 100 nM | O=C(Nc1cc(-c2ccc(=O)n(C(F)F)c2)cc2c1[C@H](c1cc(F)ccc1Cl)NC2=O)c1cc(F)cc(C(F)(F)F)c1 [Compound I-1861] |
| ≤ 100 nM | CS(=O)(Cc1cc(NC(=O)c2cc(F)cc(C(F)(F)F)c2)c2c(c1)C(=O)NC2c1cc(F)ccc1Cl)=Nc1ccccc1 (centres unmarked) [Compound I-1435] |
| 1000 to 10000 nM | CC(C)(O)c1cc(NC(=O)N2C[C@H](O)c3ccccc32)c2c(c1)C(=O)N[C@@H]2c1cc(F)ccc1Cl (single isomer, unassigned) [Compound I-2121] |
| 1000 to 10000 nM | O=C1NC(c2cc(F)ccc2Cl)c2c(NC(=O)c3noc4c3CCCC4)cccc21 (centres unmarked) [Compound I-2238] |
| 1000 to 10000 nM | O=C(Nc1cc(-c2ccncc2F)cc2c1[C@H](c1cc(F)ccc1Cl)NC2=O)c1cc(F)cc(C(F)(F)F)c1 (stereo in doubt) [Compound I-987] |
| 1000 to 10000 nM | O=C(Nc1cc(Br)cc2c1C(c1cc(F)ccc1Cl)NC2=O)c1cc(C(F)(F)F)cs1 (centres unmarked) [Compound I-1428] |
| ≤ 100 nM | O=C(Nc1cc(-c2ccnc(C(F)F)c2)cc2c1C(c1cc(F)ccc1Cl)NC2=O)c1cc(F)cc(C(F)(F)F)c1 (centres unmarked) [Compound I-1933] |
| ≤ 100 nM | N#CC[C@@H](O)c1cc(NC(=O)c2cc(F)cc(C(F)(F)F)c2)c2c(c1)C(=O)N[C@H]2c1cc(F)ccc1Cl (single isomer, unassigned) [Compound I-1393] |
